Data on 2 compounds can be found in paper PMC3320663 (Chemmedchem, 2011).

One series has as its target T1, TbTryS (Trypanosoma brucei, UniProt Q586P2).
T1 sequence (Q586P2 1-627): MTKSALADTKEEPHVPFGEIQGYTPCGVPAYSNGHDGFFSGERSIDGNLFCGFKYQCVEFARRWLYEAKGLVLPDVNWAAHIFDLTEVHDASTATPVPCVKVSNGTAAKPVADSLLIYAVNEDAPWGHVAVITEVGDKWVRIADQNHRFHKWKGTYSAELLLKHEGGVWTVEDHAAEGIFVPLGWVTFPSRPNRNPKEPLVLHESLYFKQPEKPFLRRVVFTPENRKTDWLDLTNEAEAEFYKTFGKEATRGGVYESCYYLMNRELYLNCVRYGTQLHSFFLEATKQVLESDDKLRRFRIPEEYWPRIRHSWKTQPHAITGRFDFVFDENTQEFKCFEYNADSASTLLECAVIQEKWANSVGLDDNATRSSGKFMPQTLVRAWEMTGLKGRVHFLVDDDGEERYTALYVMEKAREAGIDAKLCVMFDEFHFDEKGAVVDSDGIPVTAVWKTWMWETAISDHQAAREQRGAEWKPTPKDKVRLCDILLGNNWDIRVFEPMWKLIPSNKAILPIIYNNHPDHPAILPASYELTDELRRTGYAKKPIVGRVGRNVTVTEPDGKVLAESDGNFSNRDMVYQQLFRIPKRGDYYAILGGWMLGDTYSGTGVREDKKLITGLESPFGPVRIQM
As to the kind of experiment: Trypanothione synthetase. To be noted: for LE (ligand efficiency): calculated as −0.6×ln(IC50)/(heavy atom count). The class given is biochemical.

In series [1] the test system is bloodstream form T. brucei. As to the kind of experiment: Trypanosomal cell proliferation assay. It counts as cell-based. To be noted: Trypanosoma brucei, read-out: Tb EC50.
Series [2] in a line: Human cell counter-screen proliferation assay. To be noted: MRC5 fibroblasts. It counts as cell-based.
Series [3] has as its system trypanothione levels in T. brucei parasites. As to conditions: of wild-type levels; 2×EC50 for 72 h; cited from earlier work.
The subject of series [4] is wild-type T. brucei cells. To be noted: read-out: EC50 wild-type cell line; cited from earlier work.
Series [5] relates to TbTryS single knockout (SKO) cell line. To be noted: read-out: EC50 SKO cell line; cited from earlier work.
Series [6] has as its system TbTryS overexpressing (OE) cell line. As to conditions: read-out: EC50 OE cell line; cited from earlier work.

Take `CN(C)CCCNC(=O)Cn1nc(-c2cccc(F)c2)c2ccccc21` [Compound 84, N-(3-(Dimethylamino)propyl)-2-(3-(3-fluorophenyl)-1H-indazol-1-yl)acetamide]: the “in vitro enzyme potency improved over the best HTS hits” value on TbTryS is recorded as more than 10 fold. Besides, the “improvement in potency over the analogous piperazines” value at TbTryS (83 vs 90, 84 vs 80) turned out to be 18 fold. Moreover, the “LE (ligand efficiency)” value on TbTryS was 0.39. For the same compound, the EC50 in series [1] is 5.4 µM; in series [2], 20 µM; in series [4], 7.1 µM; in series [5], 1.2 µM; in series [6], 23.3 µM. Moreover, in series [3], the trypanothione levels is reported as less than 10%.
Regarding `O=C(Cn1nc(-c2cccc(F)c2)c2ccccc21)N1CCCCC1` [Compound 89, 2-(3-(3-Fluorophenyl)-1H-indazol-1-yl)-1-(piperidin-1-yl)ethanone], the IC50 against TbTryS (TbTryS IC50) is 0.14 µM; on TbTryS (TbTryS IC50, values in running text), 0.135 µM. For the same compound, the “LE (ligand efficiency)” value at TbTryS is 0.38. In addition, the EC50 is 5.1 µM in series [1]; more than 50 µM in series [2]; 20.4 µM in series [4]; 6.9 µM in series [5]; 44.5 µM in series [6]. Further, in series [3], the trypanothione levels was less than 10%.
